Experimental data as given in patent publication US7109246B1, “Pharmaceutical compositions comprising an amphoteric surfactant an alkoxylated cetyl alcohol and a polar drug” (Hewlett Healthcare Ltd, priority 1998, dated 2006).
Like-named read-outs stand apart in the source and are kept apart here.

Legend:
[1] = Bioavailability and pharmacokinetics of sodium cromoglycate from the literature; assay type: in vivo, human; details: oral, maximum administered dose of 2800 mg in a 70 kg person
Protocol: Urinary levels over time are probably a better measure of bioavailability.
Thus the maximum administered topical daily dose is expected to be 800 mg.

[2] = cited from earlier work
[3] = radioimmunoassay after applying an aqueous solution to skin; cited from earlier work
[4] = cited from earlier work; remark: listed apart in the source
[5] = test system: antigen induced wheal and flare reaction in the skin; details: cited from earlier work

O=C([O-])c1cc(=O)c2c(OCC(O)COc3cccc4oc(C(=O)[O-])cc(=O)c34)cccc2o1.[Na+].[Na+] [sodium cromoglycate, disodium 5,5′-[(2-hydroxytrimethylene)dioxy]bis-[4-oxo-4H-1-benzopyran-2-carboxylate]]
absorbed dose [1]: 28 mg
metabolism ([2]; in vivo): not metabolised
removal from the blood ([2]; in vivo): rapidly removed
bioavailability ([2]; oral, food allergy): 1%
sodium cromoglycate in the blood [3]: unable to detect
main adverse effects ([4]; clinical practice, generally transient): headache, dizziness, local irritation of the target organ and an unpleasant taste in the mouth
adverse effects ([4]; eye drops): burning and stinging
adverse effects ([4]; intra-nasal administration): epistaxis
adverse effects ([4]; oral administration): nausea, skin rash and joint pain
dependence of effect on pretreatment ([5]; 3 days pretreatment versus single dose immediately preceding skin prick testing): significant effect is observed only after pretreatment
effect on antigen induced wheal and flare reaction ([5]; topical, human subjects): inhibits
